What was measured:
Format in all cases: cell-based, mouse
ID8 cells = test: PARP inhibitor IC50 analysis through MTS assay in ID8 cells incubated with vSIRPα-siBRCA
Method: (§1) FIG. 9A, FIG. 9B, FIG. 9C, and FIG. 9D illustrate a result of treating ID8 cells incubated with vSIRPα-siBRCA with a PARP inhibitor (Olaparib or Talazoparib) and performing IC50 analysis through MTS assay.
(§2) Knockdown and knockout of BRCA genes were highly correlated with the efficacy of synthetic lethal cell death induction of the PARP inhibitor. Therefore, whether the PARP inhibitor, after silencing the expression of BRCA1/2, could induce apoptosis of tumor cells was required confirmation. BRCA1 and/or BRCA2 may be effectively knocked down by treating ID8 cells with the vSIRPα-siBRCA conjugates. Therefore ID8 cells were treated with the vSIRPα-siBRCA conjugates for 48 hours and then treated with Talazoparib at various concentrations for 72 hours.

phospho-H2AX (γH2AX) = test: DNA damage analysis by flow cytometry after PARP inhibitor in BRCA silenced cells; conditions: for γH2AX increase compared with control group: 0.01 μM Talazoparib
Method: The ID8 cells were dispensed in a 6-well plate at 2×10^5 cells/dish and incubated for 48 hours with PBS, vSIRPα-siBRCA1, vSIRPα-siBRCA2, and vSIRPα-siBRCA1/2. Subsequently, the cells were trypsinized and dispensed in a 6-well plate at 2×10^5 cells/dish, and treated with Olaparib or Talazoparib at a predetermined concentration for 24 to 48 hours.
Subsequently, the cells were detached with Trypsin-EDTA, blocked for 30 minutes using a PBS solution containing 1% FBS, and then a phospho-H2AX antibody was incubated for 2 hours. Thereafter, after PBS washing, flow cytometry was performed using a FACS device to measure phospho-H2AX antibody staining
To evaluate the level of PARP inhibitor-mediated DNA damage in BRCA gene-silenced cells, the expression levels of phospho-H2AX (γH2AX), a DNA damage marker, were measured by flow cytometry.
ID8 cells were treated with vSIRPα-siBRCA1 and vSIRPα-siBRCA2 alone or in combination, respectively, and after 48 hours, each cell type was treated with a PARP inhibitor, Talazoparib, and incubated for 48 hours.

[1] = system: BRCA1-deficient ID8 cells; test: PARP inhibitor IC50 analysis through MTS assay in BRCA1-deficient ID8 cells with BRCA2 knockdown; conditions: BRCA1-deficient ID8 cells with BRCA2 knocked down
Method: as §1, §2

[2] = BRCA1-knockdown (silenced) ID8 cells, vSIRPα-siBRCA 48 hours then PARP inhibitor 72 hours
[3] = BRCA1/2 silenced ID8 cells (vSIRPα-siBRCA1 and vSIRPα-BRCA2 together), 48 hours then PARP inhibitor 72 hours
[4] = BRCA2-knockdown (silenced) ID8 cells, vSIRPα-siBRCA 48 hours then PARP inhibitor 72 hours

Compound	fold reduction of IC50 of PARP inhibitor vs BRCA normal-expressing (control) ID8 cells (ID8 cells; [2])	fold reduction of IC50 of PARP inhibitor vs BRCA normal-expressing (control) ID8 cells (ID8 cells; [3])	fold reduction of IC50 of PARP inhibitor vs BRCA normal-expressing (control) ID8 cells (ID8 cells; [4])	γH2AX increase compared with control group (phospho-H2AX (γH2AX); BRCA1/2 silenced ID8 cells (both conjugates 48 hours))	γH2AX increase compared with control group (phospho-H2AX (γH2AX); BRCA1 silenced ID8 cells (vSIRPα-siBRCA1 48 hours))	γH2AX increase compared with control group (phospho-H2AX (γH2AX); BRCA2 silenced ID8 cells (vSIRPα-siBRCA2 48 hours))	expression levels of γH2AX (phospho-H2AX (γH2AX); ID8-sgBRCA1/2 cells, Talazoparib 48 hours)	fold reduction of IC50 of PARP inhibitor by BRCA2 knockdown [1]
O=C(c1cc(Cc2n[nH]c(=O)c3ccccc23)ccc1F)N1CCN(C(=O)C2CC2)CC1 [Olaparib]	about 3.76 fold	about 13.97 fold	about 2.77 fold	–	–	–	–	–
Cn1ncnc1[C@H]1c2n[nH]c(=O)c3cc(F)cc(c23)N[C@@H]1c1ccc(F)cc1 [Talazoparib]	3.23 fold	28.11 fold	4.34 fold	~3.06 fold	about 1.32 fold	~2.16 fold	significantly increased	about 3.6 fold
